Results reported in PMC2410169, “N-hexanoyl-sphingomyelin potentiates in vitro doxorubicin cytotoxicity by enhancing its cellular influx” (British Journal of Cancer, 2004).
Read-outs that look alike come from different tables or passages of the source.

Tests used:
BAEC [1] = assay type: cell-based, bovine; conditions: for Effect on doxorubicin uptake (in words): assay as for C6-SM, Table 1
Experimental: (§1) For intracellular doxorubicin measurements, cells were cultured in flat-bottom 96-well plates. At confluence, cells were changed to a serum-free medium and exposed to 50 μM doxorubicin during 60 min (unless indicated otherwise). After washing with ice-cold PBS, cells were lysed in 1% (w v^−1) Triton X-100 in water. Native fluorescence intensities were then measured by a Perkin-Elmer Victor Wallac II fluorescence microplate reader, using λex 485 nm and λem 535 nm filters. Additional probes and drugs that were tested for cellular uptake during 60 min incubations, either in the absence or presence of lipid, were hydrazide-AF488 (35 μM, λex 485 nm, λem 535 nm), sulphorodamine-101 (400 μM, λex 355 nm, λem 620 nm), propidium iodide (300 μM, λex 355 nm, λem 535 nm), o-phtaldialdehyde (1 mM, λex 485 nm, λem 535 nm), topotecan (30 μM, λex 355 nm, λem 535 nm), epirubicin (50 μM, λex 485 nm, λem 535 nm), bisbenzimidine (10 μM, λex 355 nm, λem 460 nm), camptothecin (30 μM, λex 355 nm, λem 460 nm), daunorubicin (25 μM, λex 485 nm, λem 535 nm) and idarubicin (20 μM, λex 485 nm, λem 535 nm).

BAEC [2] = assay: Cellular uptake of fluorescent drugs and probes with or without C6-SM; assay type: cell-based, bovine; conditions: 10 μM C6-SM, 60 min
Experimental: as §1

[3] = 10 μM lipid analogue with 50 μM doxorubicin, 60 min, control = no lipid, no ethanol, n=3

Molecule	Doxorubicin (% of control±s.d.) (BAEC [1]; [3])	Effect on doxorubicin uptake (in words) (BAEC [1])	also measured
CCCCCCCCCC(=O)NC(CN1CCOCC1)C(O)c1ccccc1 (racemic) [PPMP]			Doxorubicin (% of control±s.d.) (BAEC [1]; Table 4, PPMP 30 μM, 96 h pretreatment, no C6-SM): 166.5±22.5 % of control
CCCCCCCCCCCCC/C=C/C(O)C(COP(=O)([O-])OCC[N+](C)(C)C)NC(C)=O (stereo not drawn) [C2-sphingomyelin, N-acetyl-sphingomyelin]	129.6±19.6 % of control	moderate effect	
CCCCCCCCCCCCC/C=C/[C@@H](O)[C@H](CO)NC(=O)CCCCC [C6-ceramide]	105.6±6.5 % of control	little or no effect	
CCCCCC(=O)OCC(COP(=O)([O-])OCC[N+](C)(C)C)OC(=O)CCCCC (stereo not drawn) [C6-phosphatidylcholine, dihexanoyl-phosphatidylcholine]	101.0±28.2 % of control	completely without effect	
CCCCCCCCCCCCC/C=C/[C@@H](O)[C@H](COP(=O)(O)O)NC(=O)CCCCCCC [C8-ceramide 1-phosphate, C8-ceramide-1-phosphate]	116.5±20.6 % of control	little or no effect	
CN(C)C(=O)CCSC(SCCC(=O)O)c1cccc(/C=C/c2ccc3ccc(Cl)cc3n2)c1 (stereo not drawn) [MK571]			Doxorubicin (% of control±s.d.) (BAEC [1]; Table 2, MK571 12.5 μM, no C6-SM): 103.5±30.2 % of control
C/C=C/C[C@@H](C)C(=O)[C@H]1C(=O)N[C@@H](C(C)C)C(=O)N(C)CC(=O)N(C)[C@@H](CC(C)C)C(=O)N[C@@H](C(C)C)C(=O)N(C)[C@@H](CC(C)C)C(=O)N[C@@H](C)C(=O)N[C@H](C)C(=O)N(C)[C@@H](CC(C)C)C(=O)N(C)[C@@H](CC(C)C)C(=O)N(C)[C@@H](C(C)C)C(=O)N1C [PSC833]			Doxorubicin (% of control±s.d.) (BAEC [1]; Table 2, PSC833 5 μM, no C6-SM): 76.0±15.6 % of control
CCCCCCCCCCCCC/C=C/[C@@H](O)[C@@H](N)COP(=O)([O-])OCC[N+](C)(C)C [Sphingosinephosphorylcholine, sphingosylphosphorylcholine]	143.2±10.0 % of control	moderate effect	
CC[C@@]1(O)C(=O)OCc2c1cc1n(c2=O)Cc2cc3ccccc3nc2-1 [camptothecin]			Sensitivity towards C6-SM uptake enhancement (BAEC [2]): mostly insensitive to C6-SM
COc1cccc2c1C(=O)c1c(O)c3c(c(O)c1C2=O)C[C@@](O)(C(=O)CO)C[C@@H]3O[C@H]1C[C@H](N)[C@@H](O)[C@H](C)O1 [epirubicin]			Sensitivity towards C6-SM uptake enhancement (BAEC [2]): C6-SM sensitive
CC[C@@]1(O)C(=O)OCc2c1cc1n(c2=O)Cc2cc3c(CN(C)C)c(O)ccc3nc2-1 [topotecan]			Sensitivity towards C6-SM uptake enhancement (BAEC [2]): C6-SM sensitive
methyl-β-cyclodextrin [CDX]			Doxorubicin (% of control±s.d.) (BAEC [1]; Table 4, CDX 10 mM, 30 min pretreatment, no C6-SM): 113.0±28.1 % of control
sphingomyelin [Endogenous SM]		does not work	
